The values that follow come from patent publication US20230159532A1, “PARATHYROID HORMONE (PTH) RECEPTOR ANTAGONISTS AND USES THEREOF” (Crinetics Pharmaceuticals, Inc., priority 2021, published 2023).

The target of this assay is T1, human PTHR1 receptor (Homo sapiens, UniProt Q03431).
T1 construct: purchased Eurofins HTS030M
T1 sequence (Q03431 27-593): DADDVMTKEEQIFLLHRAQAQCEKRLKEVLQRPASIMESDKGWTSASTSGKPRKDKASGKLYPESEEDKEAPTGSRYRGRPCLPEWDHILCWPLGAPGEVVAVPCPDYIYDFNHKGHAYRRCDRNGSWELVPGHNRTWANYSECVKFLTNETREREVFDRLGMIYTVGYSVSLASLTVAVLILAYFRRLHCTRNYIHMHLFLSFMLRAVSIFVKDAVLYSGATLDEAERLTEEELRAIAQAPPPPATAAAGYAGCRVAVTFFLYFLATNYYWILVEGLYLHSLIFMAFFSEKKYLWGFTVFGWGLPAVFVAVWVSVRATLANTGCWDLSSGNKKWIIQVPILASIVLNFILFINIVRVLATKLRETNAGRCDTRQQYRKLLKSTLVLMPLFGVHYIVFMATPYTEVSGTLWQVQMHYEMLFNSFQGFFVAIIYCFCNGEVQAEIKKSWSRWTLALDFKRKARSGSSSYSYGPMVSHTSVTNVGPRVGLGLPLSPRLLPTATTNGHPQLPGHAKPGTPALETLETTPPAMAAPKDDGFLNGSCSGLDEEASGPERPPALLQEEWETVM
Kind of assay: Competitive antagonist binding assay for hPTH-R1 (radioactive competition binding, SPA beads). The settings on record: human PTHR1 membranes, [125I]-[Nle8,18,Tyr34]-PTH(1-34) 0.2 nM, 90 minutes at room temperature; read-out: hPTHR1 Ki. The gist of the method:
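Displacement of 0.2 nM radioiodinated [Nle8,18,Tyr34]-PTH(1-34) from membrane-bound human PTHR1 measured by scintillation proximity after 90 min at room temperature. Compounds typically 0-10,000 nM final, pH 7.4 HEPES/Mg/Ca buffer with BSA and detergent. Ki calculated from competition data.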

As to `CCN1C(=O)N(c2c(F)cc(NCCNCCO)cc2F)c2cc(C#N)c(C)cc2-c2cc(F)cnc21` [3-20, 10-[2,6-difluoro-4-({2-[(2-hydroxyethyl)amino]ethyl}amino)phenyl]-8-ethyl-4-fluoro-14-methyl-9-oxo-6,8,10-triazatricyclo[9.4.0.0^2,7]pentadeca-1(11),2(7),3,5,12,14-hexaene-13-carbonitrile], the inhibition constant (Ki) was less than 0.1 µM.

As for `CCN1C(=O)N(c2c(F)cc(NCCNCCCC(=O)O)cc2F)c2cc(C#N)cc(C)c2-c2cc(F)cnc21` [1-68, 4-({2-[(4-{13-cyano-8-ethyl-4-fluoro-15-methyl-9-oxo-6,8,10-triazatricyclo[9.4.0.0^2,7]pentadeca-1(11),2(7),3,5,12,14-hexaen-10-yl}-3,5-difluorophenyl)amino]ethyl}amino)butanoic acid], the Ki is less than 0.1 µM.

In the case of `CCN1C(=O)N(c2c(F)cc(NCCNC)cc2F)c2cc(C#N)ccc2-c2cc(Cl)cnc21` [1-54, 4-chloro-10-(2,6-difluoro-4-{[2-(methylamino)ethyl]amino}phenyl)-8-ethyl-9-oxo-6,8,10-triazatricyclo[9.4.0.0^2,7]pentadeca-1(11),2(7),3,5,12,14-hexaene-13-carbonitrile], the Ki is less than 0.1 µM.

Take `CCN1C(=O)N(c2c(F)cc(NCCNC)cc2F)c2cc(Cl)ccc2-c2cc(C3CC3)cnc21` [1-24, 13-chloro-4-cyclopropyl-10-(2,6-difluoro-4-{[2-(methylamino)ethyl]amino}phenyl)-8-ethyl-6,8,10-triazatricyclo[9.4.0.0^2,7]pentadeca-1(11),2(7),3,5,12,14-hexaen-9-one]: the Ki is less than 0.1 µM.

With `CCN1C(=O)N(c2c(F)cc(NCCNC3CCOC3)cc2F)c2cc(Cl)ccc2-c2cc(Cl)cnc21` (stereo not drawn) [1-13, 4,13-dichloro-10-[2,6-difluoro-4-({2-[(oxolan-3-yl)amino]ethyl}amino)phenyl]-8-ethyl-6,8,10-triazatricyclo[9.4.0.0^2,7]pentadeca-1(11),2(7),3,5,12,14-hexaen-9-one], the Ki was less than 0.1 µM.

Consider `CCN1C(=O)N(c2c(F)cc(NCCN)cc2F)c2cc(Cl)ccc2-c2cc(Cl)cnc21` [1-9, 10-{4-[(2-aminoethyl)amino]-2,6-difluorophenyl}-4,13-dichloro-8-ethyl-6,8,10-triazatricyclo[9.4.0.0^2,7]pentadeca-1(11),2(7),3,5,12,14-hexaen-9-one], for which the Ki was less than 0.1 µM.

`CCN1C(=O)N(c2c(F)cc(N[C@@H](C)CNC)cc2F)c2cc(C#N)ccc2-c2cc(Cl)cnc21` [1-165, 4-chloro-10-(2,6-difluoro-4-{[(2S)-1-(methylamino)propan-2-yl]amino}phenyl)-8-ethyl-9-oxo-6,8,10-triazatricyclo[9.4.0.0^2,7]pentadeca-1(11),2(7),3,5,12,14-hexaene-13-carbonitrile]: the Ki was less than 0.1 µM.

`CCN1C(=O)N(c2ccc(NCCNC)cc2)c2cc(Cl)ccc2-c2cc(C)cnc21` [2-5, 13-chloro-8-ethyl-4-methyl-10-(4-{[2-(methylamino)ethyl]amino}phenyl)-6,8,10-triazatricyclo[9.4.0.0^2,7]pentadeca-1(11),2(7),3,5,12,14-hexaen-9-one]: the Ki was less than 0.1 µM.

As for `CNCCNc1cc(F)c(N2C(=O)N(CCOC)c3ncc(F)cc3-c3ccc(C#N)cc32)c(F)c1` [1-122, 10-(2,6-difluoro-4-{[2-(methylamino)ethyl]amino}phenyl)-4-fluoro-8-(2-methoxyethyl)-9-oxo-6,8,10-triazatricyclo[9.4.0.0^2,7]pentadeca-1(11),2(7),3,5,12,14-hexaene-13-carbonitrile], the Ki was less than 0.1 µM.

Take `CCN1C(=O)N(c2c(F)cc(N3CCN[C@H](CO)C3)cc2F)c2cc(C#N)ccc2-c2cc(Cl)cnc21` [1-152, 4-chloro-10-{2,6-difluoro-4-[(3S)-3-(hydroxymethyl)piperazin-1-yl]phenyl}-8-ethyl-9-oxo-6,8,10-triazatricyclo[9.4.0.0^2,7]pentadeca-1(11),2(7),3,5,12,14-hexaene-13-carbonitrile]: the Ki lay in the range of 0.1 to 1 µM.

As to `CCN1C(=O)N(c2c(F)cc(NCCNC)cc2F)c2cc(Cl)cc(C)c2-c2cc(F)cnc21` [1-32, 13-chloro-10-(2,6-difluoro-4-{[2-(methylamino)ethyl]amino}phenyl)-8-ethyl-4-fluoro-15-methyl-6,8,10-triazatricyclo[9.4.0.0^2,7]pentadeca-1(11),2(7),3,5,12,14-hexaen-9-one], the Ki is less than 0.1 µM.

For `CCN1C(=O)N(c2c(F)cc(N3CC[C@@H](N)C3)cc2F)c2cc(Cl)ccc2-c2cc(Cl)cnc21` [1-42, 10-{4-[(3R)-3-aminopyrrolidin-1-yl]-2,6-difluorophenyl}-4,13-dichloro-8-ethyl-6,8,10-triazatricyclo[9.4.0.0^2,7]pentadeca-1(11),2(7),3,5,12,14-hexaen-9-one], the Ki was less than 0.1 µM.

In the case of `CCN1C(=O)N(c2c(F)cc(NCCNCCO)cc2F)c2cc(Cl)ccc2-c2cc(Cl)cnc21` [1-11, 4,13-dichloro-10-[2,6-difluoro-4-({2-[(2-hydroxyethyl)amino]ethyl}amino)phenyl]-8-ethyl-6,8,10-triazatricyclo[9.4.0.0^2,7]pentadeca-1(11),2(7),3,5,12,14-hexaen-9-one], the Ki was less than 0.1 µM.

As to `CN1C(=O)N(c2c(F)cc(NCCN)cc2F)c2cc(C#N)ccc2-c2cc(Cl)cnc21` [1-223, 10-{4-[(2-aminoethyl)amino]-2,6-difluorophenyl}-4-chloro-8-methyl-9-oxo-6,8,10-triazatricyclo[9.4.0.0^2,7]pentadeca-1(11),2(7),3,5,12,14-hexaene-13-carbonitrile], the Ki was less than 0.1 µM.

As to `CCN1C(=O)N(c2c(F)cc(NCC3(CO)CNC3)cc2F)c2cc(C#N)ccc2-c2cc(Cl)cnc21` [1-158, 4-chloro-10-[2,6-difluoro-4-({[3-(hydroxymethyl)azetidin-3-yl]methyl}amino)phenyl]-8-ethyl-9-oxo-6,8,10-triazatricyclo[9.4.0.0^2,7]pentadeca-1(11),2(7),3,5,12,14-hexaene-13-carbonitrile], the Ki was 0.1 to 1 µM.

On to `CCN1C(=O)N(c2c(F)cc(NCCNCCO)cc2F)c2cc(C#N)cc(F)c2-c2cc(F)cnc21` [1-103, 10-[2,6-difluoro-4-({2-[(2-hydroxyethyl)amino]ethyl}amino)phenyl]-8-ethyl-4,15-difluoro-9-oxo-6,8,10-triazatricyclo[9.4.0.0^2,7]pentadeca-1(11),2(7),3,5,12,14-hexaene-13-carbonitrile], for which the Ki is less than 0.1 µM.

Take `CCN1C(=O)N(c2c(F)cc(NCCN[C@H]3C[C@H](C(=O)O)C3)cc2F)c2cc(C#N)ccc2-c2cc(Cl)cnc21` [1-206, (1r,3r)-3-({2-[(4-{4-chloro-13-cyano-8-ethyl-9-oxo-6,8,10-triazatricyclo[9.4.0.0^2,7]pentadeca-1(11),2(7),3,5,12,14-hexaen-10-yl}-3,5-difluorophenyl)amino]ethyl}amino)cyclobutane-1-carboxylic acid]: the Ki is less than 0.1 µM.

For the compound `CCN1C(=O)N(c2c(F)cc(NCCNCC3CCC(=O)N3)cc2F)c2cc(C#N)ccc2-c2cc(Cl)cnc21` (stereo not drawn) [1-176, 4-chloro-10-{2,6-difluoro-4-[(2-{[(5-oxopyrrolidin-2-yl)methyl]amino}ethyl)amino]phenyl}-8-ethyl-9-oxo-6,8,10-triazatricyclo[9.4.0.0^2,7]pentadeca-1(15),2(7),3,5,11,13-hexaene-13-carbonitrile], the inhibition constant (Ki) is less than 0.1 µM.

By Ki is commonly meant the equilibrium dissociation constant of an inhibitor or competing ligand from its target.
